Reference: patent US20240165108A1, “NOVEL USE” (GlaxoSmithKline Intellectual Property Development Limited, priority 2022, published 2024)
Blank lines part the entries; values can stand above or below the compound they belong to.

Columns and labels:
human hair follicles [1] = experiment: Microscopic hair cycle staging in ex vivo hair follicle organ culture; type: cell-based; conditions: for percentage of hair follicles in the anagen phase: donors with healthy hair follicles
Description: Compounds, at the concentrations indicated, are present throughout the duration of the hair follicle culture at 0.1% DMSO.

GPR91 [2] = target: T1, GPR91 (Homo sapiens, UniProt Q9BXA5); experiment: Calcium flux in HEK293; type: cell-based; conditions: read-out: Test compound pIC50, Calcium flux in HEK293 (converted)
T1 sequence (Q9BXA5 1-334): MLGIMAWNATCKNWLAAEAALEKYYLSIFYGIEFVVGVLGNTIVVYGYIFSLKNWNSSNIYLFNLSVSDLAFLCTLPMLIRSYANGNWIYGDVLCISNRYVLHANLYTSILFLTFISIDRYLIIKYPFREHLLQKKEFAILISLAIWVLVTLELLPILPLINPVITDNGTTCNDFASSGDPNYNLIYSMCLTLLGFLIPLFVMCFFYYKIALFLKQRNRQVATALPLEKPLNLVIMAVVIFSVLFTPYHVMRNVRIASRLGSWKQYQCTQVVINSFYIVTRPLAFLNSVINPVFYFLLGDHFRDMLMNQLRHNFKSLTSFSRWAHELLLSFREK
Description: (§1) GPR91 inhibition can be measured according to the art. For example, GPR91 inhibition may be measured by testing a compound in a G-protein functional assay such as Calcium flux, IP1 accumulation and GTPyS. GPR91 inhibition may be measured by testing a compound in phenotypic assays which measures a cytokine response that is relevant to the indication.

GPR91 [3] = target: T1, GPR91; experiment: IP1 accumulation; type: cell-based; set-up: host or cells: LUVA; conditions: read-out: Test compound pIC50, IP1 (converted)
Description: as §1

human hair follicles [4] = experiment: RNA sequencing of ex vivo cultured hair follicles; type: cell-based
Protocol: RNA extraction, sequencing and analysis were performed as follows; RNA from n=2-3 hair follicles per group was extracted using […]® PicoPure® RNA Isolation Kit (ThermoFisher) including a Dnase digestions step using the Rnase-Free Dnase Set from Qiagen and stored at −80 degrees Celsius until analysed. RNA concentration, purity and integrity were assessed before sequencing. Sequencing was performed on a NovaSeq 6000 using 2×100 bp read length with an output of approximately 30 M clusters (6 Gb per sample). Demultiplexing of the sequencing reads was performed with Illumina bcl2fastq (2.20).
Briefly, DESeq2 first creates a pseudo-reference sample (row-wise geometric mean) and calculates the ratio of each sample to this reference. Then, the normalization factor for each sample (size factor) is calculated using the median value of all ratios for a given sample. Normalized count values are created by dividing each raw count value in a given sample by that sample's normalization factor. Finally, DESeq2 calculates p values and adjusted p values for genes of two groups by allowing the shrinkage of the log 2 fold changes when the information for a gene is low (low counts or high dispersion values). For manual calculation of fold change (FC) between two groups, the ratio of the normalized read counts was used. And FC is considered relevant or significant if it is greater of equal to 2 (upregulation) or smaller that or equal to 0.5 (downregulation).

human hair follicles [5] = experiment: Dermal papilla area and melanin clumping, Fontana-Masson stained ex vivo hair follicles; type: cell-based; conditions: for dermal papilla area: healthy hair follicles
Protocol: Microscopic hair cycle staging: Hair cycle staging is performed at the end of the culture and can be determined according to several established parameters as described previously. Hair follicles are microscopically evaluated for the hair cycle staging using Masson-Fontana histochemistry and Ki-67/TUNEL immunostaining as previously described. […] Melanin clumps are indicated on the images by the orange arrows, and are counted in the Masson-fontana stained section at the end of the culture in a defined region of interest starting at the Auber's line and including the precortical hair matrix as described previously.

human hair follicles [6] = experiment: Versican immunofluorescence in dermal papilla of hair follicles; type: cell-based; conditions: healthy hair follicles
Description: Versican immunofluorescence (as previously described in Soma et al J Dermatol Sci 2005, doi: 10.1016/j.jdermsci.2005.03.010) was used to determine hair follicle inductive properties.

GPR91 [7] = target: T1, GPR91; experiment: GTPyS G-protein functional assay; type: biochemical; set-up: host or cells: LUVA; conditions: read-out: Test compound pIC50, GTPyS (converted)
Description: as §1

GPR91 [8] = target: T1, GPR91; experiment: Succinate-stimulated secretion of PGD2 and cytokines/chemokines in LUVA cells; type: cell-based; set-up: host or cells: LUVA
Protocol: After the incubation, the cell suspension was centrifuged, and the supernatant was collected for downstream readouts of secreted factors including Prostaglandin D2 (PGD2) by ELISA (Cayman Chemical PGD2 EIA kit), and cytokines/chemokines TNFa, MIP1a and Eotaxin-3 by MSD (Mesoscale V-Plex Plus proinflammatory panel 1, Plus Chemokine Panel 1).
A GPR91 knockout in LUVA cells (received from Kerafast Inc) was generated using CRISPR technology with a single guide following protocols known in the art. The guide RNA sequence used was […] (SEQ ID NO: 4). The guide RNA cut location was chromosome 3: 151,880,674.

GPR91 [9] = target: T1, GPR91; conditions: TREM2 expressing M2 macrophages, succinate for 48 hr
Protocol: Oncostatin M levels were determined by ELISA (Abcam ab215543) according to the manufacturer's instructions.
Oncostatin M levels were determined by ELISA according to the manufacturer's instructions. […] Supernatants were collected and Oncostatin M levels were measured.

[10] = test system: human iPSC derived M2 macrophages; conditions: succinate present during macrophage polarization
[11] = test system: hair matrix keratinocytes; conditions: hair follicles from healthy donors
Protocol: Hair follicle organ cultures ex vivo: Full length hair follicles were micro dissected from scalp skin or FUEs as above.
Quantitative evaluation of hair matrix keratinocyte proliferation and apoptosis is performed in Ki-67/TUNEL stained sections of the hair follicle. The germinative hair matrix keratinocyte proliferation is calculated as the percentage of KI-67 positive nuclei. Intra-follicular apoptosis is analyzed using TUNEL staining (TdT-mediated dUTP-biotin nick end labelling) as described previously.

dermal papilla cells [12] = test system: dermal papilla cells
Protocol: iPSC were differentiated and polarized to an M2 like macrophage phenotype as previously described. […] Media was collected from the treated iPSC after 48 hours of incubation, which is referred to as conditioned media. The dermal papilla from both male and female donors were plated at 5K cells/well onto a collagen coated E-Plate and analysed using the XCELLIGENCE® platform according to the manufacturer's instructions. The cells are analysed in the machine for 24 hours to determine adherence to the plate and establishment of baseline measurements. After 24 hours, the media is aspirated, and macrophage conditioned media is added to the cells for up to 117 hours and the effects of the GPR91 dependent iPSC secretome on dermal papilla proliferation are analyzed.

[13] = test system: JAK-STAT signaling pathway; experiment: STAT3/STAT5 phosphorylation in dermal papilla cells treated with oncostatin M; type: cell-based, human
Protocol: (§2) The downstream effects of recombinant oncostatin M was assessed by evaluating signalling pathways (such as the JAK-STAT pathway previously associated with oncostatin M induced senescence in mouse [Wang 2019, PMID 30930146]) and markers associated with senescence to link specific mediators in the macrophage secretome (like oncostatin M) to disease relevant mechanisms. Dermal papilla cells in culture were treated with recombinant oncostatin M protein from BioLegend. Tofacitinib was received from MedChemExpress as a ready-made 10 mM solution and used at the indicated concentration.
Protein quantification: protein was extracted after lysis with RIPA buffer and quantified by BCA using methods known in the art. Protein was loaded onto a gel and run with NuPage MES SDS running buffer and transferred onto nitrocellulose membrane using the iBlot2 according to manufacturer's instructions and procedures known in the art. The following primary antibodies were used to assess expression of the relative proteins described: Human anti-Total STAT5 antibody, Isotype (Rabbit polyclonal IgG) from Abcam, Human anti-Phospho STAT5 antibody, Isotype (Rabbit polyclonal IgG) from Abcam, Anti-Human total STAT3 (D3Z2G) from Cell Signaling Technologies, Anti-Human pSTAT3 (Y705) (D3A7) from Cell Signaling Technologies and the control antibody, β-Actin (8H10D10) Mouse IgG2b mAb from Cell Signaling Technologies. […]

dermal papilla cells [14] = experiment: FGF18 and BMP6 gene expression in dermal papilla cells (RT-qPCR); type: cell-based, human; conditions: oncostatin M 10 ng/ml and 100 ng/ml
Protocol: as §2
Gene expression: mRNA was extracted as previously described in example 1. […] The following Taqman probes were used to identify target specific mRNA transcripts: FGF18 (Assay ID: Hs00826077_m1), and BMP6 (Assay ID: Hs01099594_m1).

dermal papilla cells [15] = experiment: Beta galactosidase activity (senescence) in dermal papilla; type: cell-based, human
Protocol: as §2
Beta Galactosidase Activity: A B-Galactosidase Activity Assay Kit (Fluorescence, Plate-Based) from Cell Signalling Technology #23833 was used to assess cellular senescence. The instructions were followed according to the manufacturer's instructions.

[16] = affected scalp regions, 5 nM, 24 hours
[17] = LUVA cells, compound 1 hr prior to succinate stimulation, read-out: Test compound pIC50, MIP-1a (converted)
[18] = healthy hair follicles after succinate
[19] = LUVA cells, succinate 3 hours, MSD

IC50 (GPR91 [2]): 39.8 nM
IC50 (GPR91 [3]): 100 nM
IC50 (GPR91 [7]): 31.6 nM
Test compound pIC50, PGD2 (GPR91 [8]; LUVA cells, compound 1 hr prior to succinate stimulation): 7.6
IC50 (GPR91 [8]; [17]): 79.4 nM
Compound: CN1CCN(Cc2ccc(-c3cccc(C(=O)Nc4ccccc4CC(=O)O)c3)cc2)CC1 [Compound 1, 2-(2-(4′-((4-methylpiperazin-1-yl)methyl)-[1,1′-biphenyl]-3-carboxamido)phenyl)acetic acid]
percentage of hair follicles in the anagen phase (human hair follicles [1]): increases the percentage of hair follicles in the anagen phase
genes of apoptotic processes, cell chemotaxis and immune function (human hair follicles [4]; [16]): significant downregulation in genes that play a role in apoptotic processes, cell chemotaxis and immune function
genes related to metabolic processes and biosynthesis of macromolecules (human hair follicles [4]; [16]): increase in genes related to increased metabolic processes and biosynthesis of macromolecules
hair keratins gene expression (human hair follicles [4]; [16]): significant upregulation in hair keratins
size of the dermal papilla area, representative images (human hair follicles [5]; 5 uM and 50 uM): increased size of the dermal papilla area
dermal papilla area, AGA (human hair follicles [5]; AGA hair follicles, affected/balding region of the scalp): increases the dermal papilla area
dermal papilla area (human hair follicles [5]): increases the dermal papilla area
versican expression in the dermal papilla (human hair follicles [6]): Increased versican expression

IC50 (GPR91 [2]): 25.1 nM
IC50 (GPR91 [3]): 7940 nM
IC50 (GPR91 [7]): 1260 nM
IC50 (GPR91 [8]; [17]): 1000 nM
IC50 (GPR91 [8]; LUVA cells, compound 1 hr prior to succinate stimulation, read-out: Test compound pIC50, PGD2 (converted)): 63.1 nM
Compound: O=C(CCCc1ccc2cccnc2n1)NCc1cc(-c2ccc(F)c(C(F)(F)F)c2)no1 [Compound 2, N-[{3-(3-trifluoromethyl-4-fluorophenyl)isoxazol-5-yl}methyl]-4-([1,8]naphthyridin-2-yl)butyramide]
percentage of hair follicles in the anagen phase (human hair follicles [1]): increases the percentage of hair follicles in the anagen phase

Compound: O=C([O-])CCC(=O)[O-].[Na+].[Na+] [Succinate, Sodium succinate]
percentage of hair follicles in the catagen phase (human hair follicles [1]; GPR91 activation by succinate): increases the percentage of hair follicles in the catagen phase
toxicity to hair follicles (human hair follicles [1]; at high concentrations): highly toxic to hair follicles
oncostatin M secretion (GPR91 [9]): secrete higher levels of oncostatin M
TREM2 expression [10]: higher levels of expression of TREM2
hair matrix keratinocyte proliferation [11]: reduces hair matrix keratinocyte proliferation
apoptosis ([11]; TUNEL): increases apoptosis
genes related to immune activation (cytokine and chemokine response) (human hair follicles [4]; [18]): increase in genes related to immune activation
genes that regulate hair follicle pathways and keratins (human hair follicles [4]; [18]): significant downregulation in genes that regulate hair follicle pathways
dermal papilla area (human hair follicles [5]): decreased size of the dermal papilla area
TNFa and MIP-1a response to succinate in GPR91 knockout (GPR91 [8]; GPR91 knockout LUVA cell line, 3 hr and 72 hour): lack of response
TNFa and MIP-1a response to succinate (GPR91 [8]; LUVA cells, 3 hr and 72 hour post succinate addition): robust TNFa and MIP-1a response
Succinate control pEC50, MIP-1a (GPR91 [8]; [19]): 3.4
Succinate control pEC50, TNF-α (GPR91 [8]; [19]): 4.2
Succinate control pEC50, PGD2 (GPR91 [8]; LUVA cells, succinate 3 hours, PGD2 ELISA): 3.5
dermal papilla proliferation with conditioned media of succinate treated macrophages (dermal papilla cells [12]; 3 mM succinate, male and female donors): inhibit dermal papilla proliferation
dermal papilla proliferation, succinate by itself (dermal papilla cells [12]; direct treatment of dermal papilla cells): does not induce any changes in the proliferation of dermal papilla cells

Compound: C[C@@H]1CCN(C(=O)CC#N)C[C@@H]1N(C)c1ncnc2[nH]ccc12 [Tofacitinib, reference compound]
oncostatin M induced phosphorylation of STAT3 and STAT5 ([13]; JAK inhibitor co-treatment): can be blocked

Compound: oncostatin M: recombinant oncostatin M protein from BioLegend; cytokine shown to induce hair follicle quiescence in mice
JAK-STAT signaling, phosphorylation of STAT3 and STAT5 ([13]; recombinant oncostatin M applied to dermal papilla): activates the JAK-STAT signaling pathway
expression of BMP6 (dermal papilla cells [14]): downregulates expression of BMP6
expression of FGF18 (dermal papilla cells [14]): increases the expression of FGF18
senescence, β-galactosidase activity (dermal papilla cells [15]): induces senescence
